Data as given in the METLIN SMRT retention time set (Domingo-Almenara et al. 2019).

Assay: gradient 5% acetonitrile 3 min, to 50% in 2 min, to 85% in 15 min, held 3 min, 100 µL/min
Details: column: Zorbax Extend-C18 2.1 x 50 mm; eluents: water / acetonitrile, 0.1% formic acid
In short: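 Over 3 months, pure standards in mixtures of ~100 molecules were run by HPLC coupled to a quadrupole time-of-flight mass spectrometer in positive and negative ionization mode. The column was a Zorbax Extend-C18 (2.1 × 50 mm, 1.8 μm) at 100 μL/min, eluted with water and acetonitrile each holding 0.1% formic acid, with 40 μL dead and 900 μL dwell volumes. Retention time was determined from adduct peaks chosen by software and checked manually.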

| Structure (SMILES) | RP-LC retention time [s] |
| --- | --- |
| O=C(NC1CC1)C1CC(=O)N(c2ccc3c(c2)CCN3C(=O)C2CC2)C1 (stereo unspecified) | 630 |
| CC(C)(C)N(C(=O)c1ccccc1[N+](=O)[O-])C(=O)N1CCCCC1 | 828 |
| COc1cccc(C(=O)Nc2ccc3c(c2)Sc2ncccc2C(=O)N3C)c1 | 785 |
| CCCCn1cc(S(=O)(=O)N2CCN(c3cccc(C)c3)CC2)c2cccnc21 | 1220 |
| COc1ccc(-c2nc3cc(C)ccn3c2NC(=O)COc2ccc(Cl)cc2)cc1 | 729 |
| CCOC(=O)c1noc2ncnc(NCc3cccc(Cl)c3)c12 | 1040 |
| CC1CCN(C(=O)C2CCN(S(=O)(=O)c3cc(C(=O)N4CCCC4)n(C)c3)CC2)CC1 | 750 |
| Cc1noc(-c2cc(=O)n(CC(=O)Nc3ccc(N(C)C)cc3)c3ccccc23)n1 | 650 |
| Cc1c2cnn(CC(=O)NCc3ccco3)c(=O)c2c(C)n1Cc1cccc(Cl)c1 | 862 |
| CCOC(=O)c1c(C)[nH]c(CCC(=O)NCC2CCCO2)c1C (stereo unspecified) | 686 |
| COc1cc(NC(=O)Cn2cccc2-c2nnc(C3CC3)o2)cc(OC)c1 | 802 |
| N#Cc1ccc(CN2CCC3(CCC3O)CC2)cc1 (stereo unspecified) | 570 |
| CC(=O)c1cccc(NC(=O)Cn2ccc3ccc(-c4nnc(C)o4)cc32)c1 | 762 |
| O=C(Nc1ccc(Nc2ccncc2)cc1)c1ccc(Nc2ccnc3ccc([N+](=O)[O-])cc23)cc1 | 636 |
| CCC(C)(C)OCC(O)CNCC(C)C (stereo unspecified) | 579 |
| COc1ccccc1NC(=O)NC1CCN(c2ccc(F)c(C)c2)C1=O (stereo unspecified) | 833 |
| COc1cccc(S(=O)(=O)N2CCC(c3noc(-c4cccc(C)c4)n3)CC2)c1 | 1180 |
| CCCC(=O)NCCc1csc(-c2ccc(Cl)cc2)n1 | 921 |
| Cc1ccc(NC(=O)N2CCCC(C)(C(=O)NCc3ccccc3)C2)cc1F (stereo unspecified) | 945 |
| CN(CCc1noc(-c2ccc(F)cc2)n1)C(=O)Nc1ccccc1F | 882 |
| Cc1ccc2nc(C(=O)NCc3cc(F)ccc3F)cn2c1 | 655 |
| CCN1C(=O)c2cccnc2Sc2cc(NC(=O)c3ccc(F)cc3)ccc21 | 832 |
| O=C(Nc1ccccc1F)c1cccn1Cc1noc(-c2ccccc2)n1 | 1010 |

| Structure (SMILES) | RP-LC retention time [s] |
| --- | --- |
| O=C(c1cccc(F)c1)N1CCN(C(=O)c2nsc3ccccc23)CC1 | 760 |
| Cc1nn(-c2ccc(N3CCCC3)nn2)c(C)c1CCC(=O)N1CCCC1 | 599 |
| O=C(Nc1ccccc1)C1CCc2nc(N3CCCCC3)ncc2C1 (stereo unspecified) | 745 |
| Clc1cc(Cl)cc(-c2ccc(CNCc3cccnc3)o2)c1 | 733 |
| CCOC(=O)C1=C(CN2CCN(C)CC2)NC(=O)NC1c1cccc(OC)c1OC (stereo unspecified) | 595 |
| O=S(=O)(Nc1cccn2c(C3CCC3)nnc12)c1ccc2c(c1)OCCO2 | 751 |
| COc1ccc(C2CC(=O)N(c3ccc(OC)cc3)C(=O)C2)cc1 | 864 |
| COCCN1C(=O)[C@H]2CN(Cc3cccc(Cl)c3)C[C@H]2C1=O | 633 |
| CC(Oc1ccc(Cl)cc1)C(=O)N1CCN(c2cc(-c3ccccc3)[nH]n2)CC1 (stereo unspecified) | 884 |
| O=C(COc1ccc(F)cc1)Nc1ccccc1NC(=O)c1ccccc1Cl | 853 |
| CCOC(=O)CNC(=O)C1CC(=O)N(CCc2c[nH]c3ccc(F)cc23)C1 (stereo unspecified) | 962 |
| CCCCC(=O)Nc1cnc(N2CCNCC2)c(C(=O)N2CCCC2)c1 | 595 |
| COc1ccc2c(c1)c(N1CCCC1=O)c(C(=O)Nc1ccc(F)cc1)n2C | 952 |
| CC(C)NC(=O)c1cc(-c2ccncc2)n[nH]1 | 553 |
| COc1ccc2c(c1)c(N1CCCC1=O)c(C(=O)NCCCN1CC(C)CC(C)C1)n2C (stereo unspecified) | 647 |
| CN(C)CCNC(=O)c1csc(-c2ccc(N3CCCC3)nc2)n1 | 548 |
| CCOc1cccc(-c2noc(Cn3ccnc3C)n2)c1 | 647 |
| O=C(Nc1cccc(Br)c1)N1CCC(n2cnc3cccnc32)CC1 | 660 |
| COc1ccc(NC(=O)N2CCC(n3c(-c4ccoc4)nc4cccnc43)C2)cc1F (stereo unspecified) | 725 |
| COc1ccc(-c2nc3cnccn3c2Nc2ccc(C(=O)N3CCOCC3)cc2)cc1OC | 609 |
| CCn1cc(C2=CCN(S(=O)(=O)c3ccc(F)cc3)CC2)c2cccnc21 | 1020 |
| COc1ccc(-c2nc(NCCN(Cc3ccco3)C3CCCC3)c3ccccc3n2)cc1 | 604 |
| COc1ccc(-n2cc(C(=O)OCc3ccco3)c3ccccc3c2=O)cc1 | 970 |
